From patent publication US12564622B2, “Preventing cytokine release syndrome” (priority 2017, dated 2026)
“And” between values parts separate entries of the source, which are not always exact repeats. Equal entries are not always repeated. “Also recorded” adds a separate entry of the source.

Key:
[1] = system: anti-CD3 antibody-induced CRS in BALB/c mice; experiment: Anti-CD3 treatment induced CRS; assay type: in vivo, mouse (BALB/c)
Experimental: (§1) Metyrosine was freshly dissolved in PBS and injected IP at 60 mg/kg/day for three days prior to injection of anti-CD3 antibodies. […] Thirty minutes before the IP injection of the anti-mouse CD3 antibody (BioXcell, 145-2C11), metyrosine was IP injected at 60 mg/kg into the contralateral side. A single additional dose of 30 mg/kg metyrosine was injected IP on the following day. Control groups were injected with PBS at the same times.
as §1, with “times. For experiments with conditional TH knockout mice, 4-6 week-old LysMcre: TH fl/fl (TH^ΔLysM) mice with C57BL/6 background were used and LysMcre: TH+/+ mice of the same age were used as control. In these experiments, 200 μg/mouse anti-mouse CD3 antibody was injected IP.” for “times.”

[2] = system: polymicrobial peritoneal sepsis induced by CLP; experiment: Cecal ligation and puncture (CLP) sepsis; assay type: in vivo, mouse (C57BL/6); settings: for circulating pro-inflammatory cytokines after CLP: pre-treatment
Experimental: (§2) Cecal ligation and puncture (CLP) was performed as described elsewhere (Rittirsch et al., 2009 Nature Protocols, 4:31-6). Briefly, six-to-eight week old female C57BL/6 mice were anesthetized and following abdominal incision, the cecum was ligated at about 14 the distance from the luminal entry to its tip. The ligated cecum was punctured through and through with a 22 G needle at ½ and ¾ the distance from the luminal entry to its tip. A small amount of the cecal content was gently pushed out of the four openings into the peritoneum. Subsequently, the abdominal muscles were sutured and the skin was closed with two staples. Five hundred microliters of saline were immediately injected subcutaneously to the mice. For the groups treated with antibiotics, imipenem (Sigma) was injected subcutaneously at 25 mg/kg starting from 20 hours after CLP, with a schedule of twice a day on day one and once a day thereafter for 10 days. Human ANP (Sigma) was dissolved in saline, loaded in mini-osmotic pumps (ALZET) with a release rate of 12 μg/day and implanted subcutaneously in the back of mice 12 hours before the CLP, with pumps loaded with saline serving as controls. Metyrosine was freshly dissolved in PBS and injected IP at 60 mg/kg/day for three days before the CLP. Twenty minutes before the CLP, metyrosine was injected at 60 mg/kg IP into the right side. The control groups were injected with PBS. For the following 4 days, metyrosine was injected at 30 mg/kg/day IP into the right side. Hydration of mice was supported by daily subcutaneous injection of 0.5 ml saline.
as §2, with “CLP” for “Cecal ligation and puncture (CLP)”, “(see, e.g., Rittirsch” for “(Rittirsch”, “2008 Rev Immunol 8:776-787).” for “2009 Nature Protocols, 4:31-6).”, “6-8 weeks” for “six-to-eight week”, “¼” for “14”, “days.” for “days. Human ANP (Sigma) was dissolved in saline, loaded in mini-osmotic pumps (ALZET) with a release rate of 12 μg/day and implanted subcutaneously in the back of mice 12 hours before the CLP, with pumps loaded with saline serving as controls.”

[3] = system: human U937-derived macrophage cells; experiment: U937 macrophage catecholamine and cytokine production; assay type: cell-based; settings: LPS 1 μg/ml and/or epinephrine 15 ng/ml, metyrosine 2 mM
Experimental: Human U937 cells were cultured in RPMI 1640 media with 5% FBS and antibiotics, and were differentiated to M1 macrophage-like cells by incubating with 20 nM phorbol 12-myristate 13-acetate (PMA, Sigma) for 24 hours and further culturing in RPMI 1640 media with 5% FBS and antibiotics for another 72 hours. The experiments with U937 were set up in the same way as described above with peritoneal macrophages. […] Cells were incubated for 24 hours with LPS at 1 μg/ml.

[4] = system: Eμ-ALL bearing C57BL/6 mice treated with mCART19; experiment: mCART19 treatment of syngeneic Eμ-ALL B-ALL model; assay type: in vivo, mouse (C57BL/6); settings: for catecholamine and cytokine release: 24 and 72 hours after mCART19; for therapeutic (antitumor) efficacy versus mCART19 alone: prophylaxis with ANP pump or metyrosine IP
Experimental: The Eμ-ALL cell line was derived from a lymphoid malignancy in an Eμ-myc transgenic mouse and upon IV injection, can develop B-ALL in C57BL/6 mice. The Eμ-ALL cells were co-cultured with feeder NIH-3T3 cells that were irradiated at 60 Gy, in RPMI 1640 media supplemented with 10% FBS, 0.05 mM 2-Mercaptoethanol and antibiotics. Eμ-ALL cells were transfected with luciferase via lentivirus. 2×10^6 Eμ-ALL cells were IV injected in female 6-8 week-old C57BL/6 mice via tail vein and after 6 days, mice were IP injected with cyclophosphamide (CPA) at 100 mg/kg for pre-conditioning as described elsewhere (see, e.g., Davila et al., 2013 PLoS One 8:e61338). One day after CPA treatment, 10×10^6 mCART19 cells were IV injected in the mice. Metyrosine was injected IP at 40 mg/kg/day for three days before the mCART19 injection. On the day of mCART19 injection, a fourth dose of 40 mg/kg was given IP and the mice were subsequently injected four more times at daily intervals at 30 mg/kg. One day before mCART19 injection, mini-osmotic pumps (ALZET) loaded with hANP with a release rate of 12 μg/day were implanted subcutaneously in the back of mice. Tumor load was monitored by Xenogen before and after mCART19 injection.

[5] = system: polymicrobial peritoneal sepsis induced by CLP; experiment: Cecal ligation and puncture (CLP) sepsis; assay type: in vivo, mouse (C57BL/6); settings: ANP given after CLP
[6] = 24 hours after anti-CD3, metyrosine pre-treatment

| SMILES | IL-2 and IFN-γ [1, 6] | circulating catecholamines [1, 6] | pro-inflammatory cytokines (IL-6, TNF-α, KC, MIP-2, MIP-1α) [1, 6] | mice surviving (of mice pre-treated) ([1]; anti-CD3 125 μg/mouse, metyrosine pre-treatment) | circulating pro-inflammatory cytokines after CLP ([2]; 24 hours after CLP) | mice surviving CLP (acute phase) ([2]; metyrosine IP pre-treatment) | fraction of mice surviving CLP ([2]; metyrosine pre-treatment plus imipenem from 20 hours after CLP) | catecholamines and cytokines [3] | catecholamine and cytokine release [4] | therapeutic (antitumor) efficacy versus mCART19 alone [4] | survival after CLP, treatment after rather than before CLP [5] | survival after CLP ([2]; ANP by osmotic pump implanted 12 hours before CLP) | pathologic examination (peritoneum, lungs, liver) ([2]; ANP pre-treated, 24 hours after CLP) |
| --- | --- | --- | --- | --- | --- | --- | --- | --- | --- | --- | --- | --- | --- |
| C[C@](N)(Cc1ccc(O)cc1)C(=O)O [metyrosine, α-methyl-tyrosine] | not significantly affected | reduced to near normal levels; also recorded: significantly reduced | major reductions | eleven of the twelve; also recorded: twelve of the fifteen | substantially reduced | 20% and 22% | > ⅔ | Comparable results were obtained | reduced | matched the therapeutic efficacy | – | – | – |
| CC[C@H](C)[C@@H]1NC(=O)[C@H](CCCNC(=N)N)NC(=O)[C@H](CC(=O)O)NC(=O)[C@H](CCSC)NC(=O)[C@H](CCCNC(=N)N)NC(=O)CNC(=O)CNC(=O)[C@H](Cc2ccccc2)NC(=O)[C@@H](NC(=O)[C@H](CO)NC(=O)[C@H](CO)NC(=O)[C@H](CCCNC(=N)N)NC(=O)[C@H](CCCNC(=N)N)NC(=O)[C@H](CC(C)C)NC(=O)[C@@H](N)CO)CSSC[C@@H](C(=O)N[C@@H](CC(N)=O)C(=O)N[C@@H](CO)C(=O)N[C@@H](Cc2ccccc2)C(=O)N[C@@H](CCCNC(=N)N)C(=O)N[C@@H](Cc2ccc(O)cc2)C(=O)O)NC(=O)CNC(=O)[C@H](CC(C)C)NC(=O)CNC(=O)[C@H](CO)NC(=O)[C@H](CCC(N)=O)NC(=O)[C@H](C)NC(=O)CNC1=O [ANP, atrial natriuretic peptide] | – | – | – | – | greatly reduced | – | – | – | reduced | matched the therapeutic efficacy | did not rescue the mice | almost half of the animals survived the acute phase | less peritoneal inflammation, pulmonary septal thickening, and hepatic inflammation; also recorded: lower or absent pulmonary septal thickening and vacuolization |
